Biological target: T1, Toll-like receptor 7 (Homo sapiens, UniProt Q9NYK1)
T1 sequence (Q9NYK1 whole entry): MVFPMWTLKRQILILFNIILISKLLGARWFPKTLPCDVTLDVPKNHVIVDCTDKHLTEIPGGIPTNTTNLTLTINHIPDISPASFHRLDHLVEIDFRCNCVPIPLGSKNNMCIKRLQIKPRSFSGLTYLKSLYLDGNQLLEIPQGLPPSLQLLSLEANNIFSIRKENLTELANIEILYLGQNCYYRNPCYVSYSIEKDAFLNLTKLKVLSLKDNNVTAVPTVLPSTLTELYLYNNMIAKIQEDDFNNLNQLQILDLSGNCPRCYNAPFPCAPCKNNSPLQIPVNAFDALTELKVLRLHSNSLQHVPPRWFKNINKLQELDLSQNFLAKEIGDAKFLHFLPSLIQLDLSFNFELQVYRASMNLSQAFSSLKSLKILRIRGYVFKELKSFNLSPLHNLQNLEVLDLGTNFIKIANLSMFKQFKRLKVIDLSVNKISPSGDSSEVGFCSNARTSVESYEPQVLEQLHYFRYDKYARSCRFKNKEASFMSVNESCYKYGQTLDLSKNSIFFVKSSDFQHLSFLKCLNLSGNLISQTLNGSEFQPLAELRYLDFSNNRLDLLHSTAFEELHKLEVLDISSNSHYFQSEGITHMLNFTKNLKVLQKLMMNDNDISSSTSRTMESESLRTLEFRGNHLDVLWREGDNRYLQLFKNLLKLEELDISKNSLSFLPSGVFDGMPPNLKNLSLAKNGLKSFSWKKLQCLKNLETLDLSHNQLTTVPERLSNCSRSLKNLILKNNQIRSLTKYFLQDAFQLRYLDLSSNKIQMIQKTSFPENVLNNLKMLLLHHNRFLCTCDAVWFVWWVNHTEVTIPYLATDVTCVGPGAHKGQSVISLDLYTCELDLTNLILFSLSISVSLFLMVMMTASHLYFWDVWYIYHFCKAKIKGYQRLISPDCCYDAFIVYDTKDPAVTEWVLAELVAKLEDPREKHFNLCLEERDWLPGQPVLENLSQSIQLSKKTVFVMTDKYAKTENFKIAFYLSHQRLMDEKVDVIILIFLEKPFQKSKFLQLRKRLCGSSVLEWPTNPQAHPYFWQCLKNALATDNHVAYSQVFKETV
Experiment: HEK Reporter Assay
Experimental: HEK293 reporter cells expressing human TLR7 or human TLR8 were purchased from Invivogen and vendor protocols were followed for cellular propagation and experimentation. Briefly, cells were grown to 80-85% confluence at 5% CO2 in DMEM supplemented with 10% FBS, Zeocin, and Blasticidin. Cells were then seeded in 96-well flat plates at 4×10^4 cells/well with substrate containing HEK detection medium and immunostimulatory molecules. Activity was measured using a plate reader at 620-655 nm wavelength.

EC50: 35 nM
Structure (SMILES): CCCNC(=O)C1=Cc2ccc(-c3cnc(CN)nc3)cc2N=C(N)C1 [US20240033370, Hx No. CycBz-5]
